Reference: patent publication US11952368B2, “FAPI dimer compound, FAPI dimer-based positron emission tomography (PET) imaging agent for tumor diagnosis, and preparation method and use thereof” (XIAMEN UNIVERSITY, priority 2021, dated 2024)

Molecular target: T1, FAP on CAFs (Homo sapiens, UniProt Q12884)
T1 construct: FAP-expressing CAFs were inoculated in a 24-well plate; endogenous in cells; host or cells: cancer-associated fibroblasts (CAFs)
T1 sequence (Q12884 1-760): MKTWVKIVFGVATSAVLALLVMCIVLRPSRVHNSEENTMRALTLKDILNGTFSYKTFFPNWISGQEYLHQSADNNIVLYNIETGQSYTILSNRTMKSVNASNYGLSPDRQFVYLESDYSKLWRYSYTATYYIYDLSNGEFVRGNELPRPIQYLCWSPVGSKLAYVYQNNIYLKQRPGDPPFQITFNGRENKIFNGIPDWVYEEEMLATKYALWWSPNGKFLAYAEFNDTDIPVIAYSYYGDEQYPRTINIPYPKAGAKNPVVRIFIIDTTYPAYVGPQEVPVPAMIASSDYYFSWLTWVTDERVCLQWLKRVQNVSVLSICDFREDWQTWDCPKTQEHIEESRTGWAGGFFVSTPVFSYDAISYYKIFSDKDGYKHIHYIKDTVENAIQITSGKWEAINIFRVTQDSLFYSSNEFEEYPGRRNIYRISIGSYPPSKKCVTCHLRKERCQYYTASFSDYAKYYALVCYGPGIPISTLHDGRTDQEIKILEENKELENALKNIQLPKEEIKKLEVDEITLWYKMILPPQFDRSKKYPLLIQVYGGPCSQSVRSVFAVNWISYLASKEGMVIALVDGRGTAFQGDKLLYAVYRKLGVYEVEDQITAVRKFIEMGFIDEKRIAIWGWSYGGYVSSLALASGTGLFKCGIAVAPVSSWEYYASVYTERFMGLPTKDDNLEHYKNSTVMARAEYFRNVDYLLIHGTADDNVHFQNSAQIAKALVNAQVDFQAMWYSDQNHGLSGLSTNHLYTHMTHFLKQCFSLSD
Test: FAP binding assay (radioligand competition) on CAFs
Procedure: FAP-expressing CAFs were inoculated in a 24-well plate and cultivated with a 10% (volume fraction) FBS-containing 1640 medium for 48 h before the experiment until a cell density was about 80% to 90%; the medium was changed to an FBS-free 1640 medium; and the ^68Ga-2PEG(3)-FAPI-dimer, ^68Ga-FAPI-46, or ^68Ga-2PEG(3)-FAPI-dimer+11.3 nmol FAPI-46 (for the blocking experiment) was added to the 24-well plate and incubated, with predetermined intervals of 10 min, 30 min, 60 min, 90 min, and 120 min. The FAP binding assay was conducted after a radiolabeled compound and a corresponding unlabeled FAPI derivative (1.27×10^−4-10^−13 mol/L of 2PEG(3)-FAPI-dimer was added to ^68Ga-2PEG(3)-FAPI-dimer; and 2.83×10^−4-1×10^−13 mol/L of FAPI-46 was added to ^68Ga-FAPI-46) were co-incubated for 60 min. A half-inhibitory concentration (IC50s) was calculated by using GraphPad Prism to fit data through nonlinear regression. In each step of the experiment, cells were washed twice with 1 mL of PBS. Finally, CAFs were lysed with 0.5 mL of a 1 mol/L NaOH aqueous solution to conduct radioactive counting with a gamma counter. 3 parallel replicates were set for each experiment.

## CN(CCCN1CCN(C(=O)COCCOCCOCCNC(=O)CCC(=O)N[C@@H](CCCCNC(=O)CN2CCN(CC(=O)O)CCN(CC(=O)O)CCN(CC(=O)O)CC2)C(=O)NCCOCCOCCOCC(=O)N2CCN(CCCN(C)c3ccc4nccc(C(=O)NCC(=O)N5CC(F)(F)C[C@H]5C#N)c4c3)CC2)CC1)c1ccc2nccc(C(=O)NCC(=O)N3CC(F)(F)C[C@H]3C#N)c2c1 [2PEG(3)-FAPI-dimer]
  IC50 value compared with FAPI-46: similar
